A short description of the series: Drug concentration in plasma of rat after subcutaneous administration of microcapsule. The series is classed as in vivo. Particulars: sc, 25 mg microcapsule of Example 1, subcutaneous at rear neck, 9 week old male SD rat, plasma from tail vein, n = 4; for concentration at 1 week: after 1 week; for concentration at 2 weeks: after 2 weeks; for concentration at 3 weeks: after 3 weeks; for concentration at 1 day: after 1 day. Here is the method:
25 mg of the microcapsule obtained in Example 1 was dispersed in 0.1 mL of dispersing medium (a solution in which 5 mg of sodium carboxymethylcellulose, 1 mg of Polysorbate 80 and 50 mg of mannitol were dissolved in 1 mL of distilled water), and this was subcutaneously administered to a 9 week old male SD rat with 23G injection needle at a rear neck part. The concentrations of drugs in plasma obtained by taking from a tail vein with time after administration were measured.

These results are taken from patent US20040219208A1, “Sustained-release medicines” (priority 2001, published 2004).

In turn, `CCOc1nc2cccc(C(=O)O)c2n1Cc1ccc(-c2ccccc2-c2nnn[nH]2)cc1` [Compound B, 2-ethoxy-1-[[2′-(1H-tetrazol-5-yl)biphenyl-4-yl]methyl]benzimidazole-7-carboxylic acid] had a concentration at 1 week of 238 ng/mL, a concentration at 2 weeks of 94 ng/mL, a concentration at 3 weeks of 4 ng/mL and a concentration at 1 day of 170 ng/mL.

`CCc1ccc(CCOc2ccc(CC3SC(=O)NC3=O)cc2)nc1` (centres unmarked) [actos] displayed a concentration at 1 week of 226 ng/mL, a concentration at 2 weeks of 155 ng/mL, a concentration at 3 weeks of 30 ng/mL and a concentration at 1 day of 313 ng/mL.
